Measurements as given in US12516046B2, “2-oxo-oxazolidine-5-carboxamides as NAV1.8 inhibitors” (Merck Sharp & Dohme LLC, priority 2020, dated 2026).

Biological target: human Nav1.8 (Homo sapiens (Human), UniProt Q9Y5Y9)
Assay: Nav1.8 Qube® Assay (automated 384-well patch-clamp)
Format: cell-based
Details: human Nav1.8 channels stably expressed in HEK 293 cells
Source text: Qube® Assay Experimental Procedure

Sequence of human Nav1.8 (Q9Y5Y9 whole entry): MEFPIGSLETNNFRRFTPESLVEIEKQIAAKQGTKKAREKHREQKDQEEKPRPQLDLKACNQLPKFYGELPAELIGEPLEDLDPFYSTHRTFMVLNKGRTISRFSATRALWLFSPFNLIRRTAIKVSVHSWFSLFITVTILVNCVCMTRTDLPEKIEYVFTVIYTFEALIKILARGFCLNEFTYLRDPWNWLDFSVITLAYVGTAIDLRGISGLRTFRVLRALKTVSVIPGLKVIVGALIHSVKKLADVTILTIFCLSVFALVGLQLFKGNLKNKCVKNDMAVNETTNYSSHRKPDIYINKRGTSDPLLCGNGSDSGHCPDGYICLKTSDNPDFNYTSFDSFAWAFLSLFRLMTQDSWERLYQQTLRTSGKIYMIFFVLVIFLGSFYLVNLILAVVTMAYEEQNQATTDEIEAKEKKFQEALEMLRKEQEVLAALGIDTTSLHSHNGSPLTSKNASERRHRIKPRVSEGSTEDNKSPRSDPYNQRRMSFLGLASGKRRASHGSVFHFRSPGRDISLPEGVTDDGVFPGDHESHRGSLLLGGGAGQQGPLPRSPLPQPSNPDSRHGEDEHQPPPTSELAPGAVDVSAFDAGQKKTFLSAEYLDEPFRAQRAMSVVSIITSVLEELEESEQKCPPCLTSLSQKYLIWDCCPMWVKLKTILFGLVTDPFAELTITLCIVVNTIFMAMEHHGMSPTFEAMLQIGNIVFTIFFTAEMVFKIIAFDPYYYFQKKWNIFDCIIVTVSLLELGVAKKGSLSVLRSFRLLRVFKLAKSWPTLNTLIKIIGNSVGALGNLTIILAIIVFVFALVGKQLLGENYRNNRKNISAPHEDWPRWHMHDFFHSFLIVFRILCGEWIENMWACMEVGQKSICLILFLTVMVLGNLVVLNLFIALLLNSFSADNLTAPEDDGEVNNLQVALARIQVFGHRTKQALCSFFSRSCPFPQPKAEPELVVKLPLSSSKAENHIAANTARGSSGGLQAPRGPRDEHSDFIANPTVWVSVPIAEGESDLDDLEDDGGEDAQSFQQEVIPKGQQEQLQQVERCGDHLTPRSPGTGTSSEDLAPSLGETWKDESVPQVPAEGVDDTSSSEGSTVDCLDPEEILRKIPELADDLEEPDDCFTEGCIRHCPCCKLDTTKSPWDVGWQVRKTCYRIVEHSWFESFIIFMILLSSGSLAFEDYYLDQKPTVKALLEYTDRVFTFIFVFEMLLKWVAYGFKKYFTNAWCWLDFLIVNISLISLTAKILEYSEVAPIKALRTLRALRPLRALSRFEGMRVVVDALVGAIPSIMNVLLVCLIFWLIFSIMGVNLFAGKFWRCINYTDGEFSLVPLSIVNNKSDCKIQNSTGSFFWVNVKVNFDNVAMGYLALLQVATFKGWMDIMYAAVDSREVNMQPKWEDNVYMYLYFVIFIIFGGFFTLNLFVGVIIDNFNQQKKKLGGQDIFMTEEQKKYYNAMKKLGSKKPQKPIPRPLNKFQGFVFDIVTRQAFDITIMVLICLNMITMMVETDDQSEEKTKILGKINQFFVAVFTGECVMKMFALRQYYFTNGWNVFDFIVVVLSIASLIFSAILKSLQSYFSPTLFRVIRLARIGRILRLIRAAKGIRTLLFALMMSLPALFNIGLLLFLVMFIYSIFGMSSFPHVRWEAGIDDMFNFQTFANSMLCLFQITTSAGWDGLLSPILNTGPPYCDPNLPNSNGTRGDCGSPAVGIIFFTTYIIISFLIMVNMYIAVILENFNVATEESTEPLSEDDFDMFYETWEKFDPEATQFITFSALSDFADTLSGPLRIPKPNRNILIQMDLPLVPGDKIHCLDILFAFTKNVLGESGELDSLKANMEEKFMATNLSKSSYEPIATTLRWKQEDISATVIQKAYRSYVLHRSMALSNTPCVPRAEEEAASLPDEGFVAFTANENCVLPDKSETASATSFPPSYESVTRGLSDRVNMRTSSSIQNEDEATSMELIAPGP

Compound	IC50 [nM]
O=C1NC[C@@H](C(=O)NC(c2ccc(F)c(Cl)c2F)[C@@H]2CC[C@@H](C(F)(F)F)CO2)O1 (single isomer, unassigned) [Example 9A]	7.3
O=C1NC[C@@H](C(=O)NC(c2ccccc2)c2cc(Cl)cc(Cl)c2)O1 (stereo partly drawn) [Example 20, (5S)-N-((3,5-dichlorophenyl) (phenyl)methyl)-2-oxooxazolidine-5-carboxamide]	32
COc1cc(Cl)ccc1C(NC(=O)[C@@H]1CNC(=O)O1)c1ccc(F)cc1 (single isomer, unassigned) [Example 55A, (S)—N—((R or S)-(4-chloro-2-methoxyphenyl)(4-fluorophenyl)-methyl)-2-oxooxazolidine-5-carboxamide]	19
O=C1NC[C@@H](C(=O)NC(c2ccc(F)c(Cl)c2)c2csc(C(F)(F)F)n2)O1 (single isomer, unassigned) [Example 44A, (S)—N—((R or S)-(3-chloro-4-fluorophenyl)(2-(trifluoromethyl)thiazol-4-yl)methyl)-2-oxooxazolidine-5-carboxamide]	4.6
O=C1NC[C@@H](C(=O)NC(c2ccc(OC(F)(F)F)c(Cl)c2)c2ccnc(C(F)(F)F)n2)O1 (single isomer, unassigned) [Example 52B, (S)-N-((R or S)-(3-chloro-4-(trifluoromethoxy)phenyl)(2-(trifluoro-methyl)pyrimidin-4-yl)methyl)-2-oxooxazolidine-5-carboxamide]	13
O=C1NC[C@@H](C(=O)NC(c2ccc(Cl)cc2)c2coc(C(F)(F)F)n2)O1 (single isomer, unassigned) [Example 18A, (S)-N-((R or S)-(4-chlorophenyl)(2-(trifluoromethyl)oxazol-4-yl)methyl)-2-oxooxazolidine-5-carboxamide]	31
COc1ccc(Cl)cc1C(NC(=O)[C@@H]1CNC(=O)O1)c1cccc(Cl)c1 (single isomer, unassigned) [Example 28B, (S)-N-((R or S)-(5-chloro-2-methoxyphenyl)(3-chlorophenyl)methyl)-2-oxooxazolidine-5-carboxamide]	8.4
O=C1NC[C@@H](C(=O)NC(c2ccc(Cl)cc2)c2ccc(OCC(F)(F)F)nn2)O1 (single isomer, unassigned) [Example 73A, (S)-N-((R or S)-(4-chlorophenyl)(6-(2,2,2-trifluoroethoxy)pyridazin-3-yl)methyl)-2-oxooxazolidine-5-carboxamide]	964
O=C1NC[C@@H](C(=O)NC(c2ccc(OCC(F)(F)F)nc2)c2ccc(F)c(Cl)c2F)O1 (single isomer, unassigned) [Example 50B, (S)—N—((R or S)-(3-chloro-2,4-difluorophenyl)(6-(2,2,2-trifluoroethoxy)pyridin-3-yl)methyl)-2-oxooxazolidine-5-carboxamide]	48
O=C1NC[C@@H](C(=O)NC(c2ccc(F)c(Cl)c2)c2ccc(Cl)cn2)O1 (single isomer, unassigned) [Example 14A, (S)-N-((R or S)-(3-chloro-4-fluorophenyl)(5-chloropyridin-2-yl)methyl)-2-oxooxazolidine-5-carboxamide]	21
O=C1NC[C@@H](C(=O)NC(c2ccc(OC(F)(F)F)c(Cl)c2)c2cnn(C(F)(F)F)c2)O1 (single isomer, unassigned) [Example 53B, (S)-N-((R or S)-(3-chloro-4-(trifluoro-methoxy)phenyl)(1-(trifluoromethyl)-1H-pyrazol-4-yl)methyl)-2-oxooxazolidine-5-carboxamide]	1.2
O=C1NC[C@@H](C(=O)NC(CCc2ccc(Cl)cc2)c2ccc(F)c(Cl)c2F)O1 (single isomer, unassigned) [Example 65B, (S)—N—((R or S)-1-(3-chloro-2,4-difluorophenyl)-3-(4-chlorophenyl)propyl)-2-oxooxazolidine-5-carboxamide]	11
O=C1NC[C@@H](C(=O)NC(c2ccc(F)c(Cl)c2)c2cc(C(F)(F)F)[nH]n2)O1 (single isomer, unassigned) [Example 5A, (S)—N—((R or S)-(3-chloro-4-fluorophenyl)(5-(trifluoromethyl)-1H-pyrazol-3-yl)methyl)-2-oxooxazolidine-5-carboxamide]	4.8
O=C1NC[C@@H](C(=O)NC(c2ccc(Cl)cc2)c2ccc3ccccc3c2)O1 (stereo partly drawn) [Example 31, (5S)-N-((4-chlorophenyl) (naphthalen-2-yl)methyl)-2-oxooxazolidine-5-carboxamide]	3.9
Cn1nc(C(NC(=O)[C@@H]2CNC(=O)O2)c2ccc(F)c(Cl)c2)cc1C(F)(F)F (single isomer, unassigned) [Example 62A, (S)-N-((R or S)-(3-chloro-4-fluorophenyl)(1-methyl-5-(trifluoromethyl)-1H-pyrazol-3-yl)methyl)-2-oxooxazolidine-5-carboxamide]	39

Next, values leading:

IC50 [nM]	Compound
190	O=C1NC[C@@H](C(=O)NC(c2cncc(Cl)c2)c2ccc(F)c(Cl)c2)O1 (single isomer, unassigned) [Example 13B, (S)-N-((R or S)-(3-chloro-4-fluorophenyl)(5-chloropyridin-3-yl)methyl)-2-oxooxazolidine-5-carboxamide]
239	O=C1NC[C@@H](C(=O)NC(c2ccc(Cl)cc2)c2ccc(F)c(C(F)F)n2)O1 (single isomer, unassigned) [Example 16A]
2.1	O=C1NC[C@@H](C(=O)NC(c2ccc(F)c(Cl)c2)c2ccc(F)c(C(F)(F)F)n2)O1 (stereo partly drawn) [Example 38, (5S)-N-((3-chloro-4-fluorophenyl)(5-fluoro-6-(trifluoromethyl)pyridin-2-yl)methyl)-2-oxooxazolidine-5-carboxamide]
4	O=C1NC[C@@H](C(=O)NC(c2ccc(F)c(Cl)c2)c2ccc(F)c(OCC(F)(F)F)n2)O1 (single isomer, unassigned) [Example 1B, (S)—N—((R or S)-(3-chloro-4-fluorophenyl)(5-fluoro-6-(2,2,2-trifluoroethoxy)pyridin-2-yl)methyl)-2-oxo-oxazolidine-5-carboxamide]
94	O=C1NC[C@@H](C(=O)NC(c2ccc(Cl)cc2)c2ccnc(C(F)(F)F)c2)O1 (stereo partly drawn) [Example 34]
21	COc1ccc(Cl)cc1C(NC(=O)[C@@H]1CNC(=O)O1)c1cccc(Cl)c1 (single isomer, unassigned) [Example 28A, (S)-N-((R or S)-(5-chloro-2-methoxyphenyl)(3-chlorophenyl)methyl)-2-oxooxazolidine-5-carboxamide]
2.4	O=C1NC[C@@H](C(=O)NC(c2ccc(Cl)cc2)c2ccc(F)c(Cl)c2)O1 (single isomer, unassigned) [Example 19B, (S)—N—((R or S)-(3-chloro-4-fluorophenyl)(4-chlorophenyl)methyl)-2-oxooxazolidine-5-carboxamide]
4.6	Cn1nc(C(F)(F)F)cc1C(NC(=O)[C@@H]1CNC(=O)O1)c1ccc(F)c(Cl)c1 (single isomer, unassigned) [Example 61A, (S)-N-((R or S)-(3-chloro-4-fluorophenyl)(1-methyl-3-(trifluoromethyl)-1H-pyrazol-5-yl)methyl)-2-oxooxazolidine-5-carboxamide]
171	O=C1NC[C@@H](C(=O)NC(c2ccc(F)c(Cl)c2)c2cnn(CC(F)(F)F)c2)O1 (single isomer, unassigned) [Example 59A, (S)-N-((R or S)-(3-chloro-4-fluorophenyl)(1-(2,2,2-trifluoroethyl)-1H-pyrazol-4-yl)methyl)-2-oxooxazolidine-5-carboxamide]
229	O=C1NC[C@@H](C(=O)NC(c2ccc(Cl)cc2)C23C4C5C6C4C2C6C53)O1 (single isomer, unassigned) [Example 56A, (S)—N—((R or S)-(4-chlorophenyl)(cuban-1-yl)methyl)-2-oxooxazolidine-5-carboxamide]
246	O=C1NC[C@@H](C(=O)NC(Cc2ccc(Cl)cc2)c2ccc(OC(F)(F)F)cc2)O1 (stereo partly drawn) [Example 68, (5S)-N-(2-(4-chlorophenyl)-1-(4-(trifluoromethoxy)phenyl)ethyl)-2-oxooxazolidine-5-carboxamide]
293	O=C1NC[C@@H](C(=O)NC(c2ccccc2)C2C3CC4CC(C3)CC2C4)O1 (stereo partly drawn) [Example 21, (5S)-N-((adamantan-2-yl)(phenyl)methyl)-2-oxooxazolidine-5-carboxamide]
378	CC(NC(=O)[C@@H]1CNC(=O)O1)(c1ccc(Cl)cc1)c1ccc(Cl)cc1 [Example 41, (S)-N-(1,1-bis(4-chlorophenyl)ethyl)-2-oxooxazolidine-5-carboxamide]
1.8	Cc1cc(C(NC(=O)[C@@H]2CNC(=O)O2)c2ccc(Cl)cc2)ccc1Cl (single isomer, unassigned) [Example 46B, (S)-N-((R or S)-(4-chloro-3-methylphenyl)(4-chlorophenyl)methyl)-2-oxooxazolidine-5-carboxamide]
2.4	O=C1NC[C@@H](C(=O)NC(c2ccc(Cl)cc2)c2cccc3ccccc23)O1 (stereo partly drawn) [Example 30, (5S)-N-((4-chlorophenyl) (naphthalen-1-yl)methyl)-2-oxooxazolidine-5-carboxamide]
1460	O=C1NC[C@@H](C(=O)NC(c2ccc(Cl)cc2)C23CCC(CC2)C3)O1 (single isomer, unassigned) [Example 3B, (S)-N-((R or S)-bicyclo[2.2.1]heptan-1-yl(4-chlorophenyl)methyl)-2-oxooxazolidine-5-carboxamide]
129	O=C1NC[C@@H](C(=O)NC(c2ccc(C(F)(F)F)nc2)c2csc(C(F)(F)F)n2)O1 (stereo partly drawn) [Example 64, (5S)-2-oxo-N-((6-(trifluoromethyl)pyridin-3-yl)(2-(trifluoromethyl)thiazol-4-yl)methyl)oxazolidine-5-carboxamide]
46	O=C1NC[C@@H](C(=O)NC(c2ccc(F)c(Cl)c2)c2ccc(F)c(OCC(F)(F)F)n2)O1 (single isomer, unassigned) [Example 1A, (S)—N—((R or S)-(3-chloro-4-fluorophenyl)(5-fluoro-6-(2,2,2-trifluoroethoxy)pyridin-2-yl)methyl)-2-oxooxazolidine-5-carboxamide]
